Reference: BindingDB's records for doi:10.1021/jm00153a007 (1986)

Target: Prostacyclin synthase (Sus scrofa)
Test: Inhibition of PGI-2 synthetase from porcine aorta

Row | Structure (SMILES) | IC50
1 | Cc1c(Cn2ccnc2)c2ccccc2n1/C=C/C(=O)O [3-(3-Imidazol-1-ylmethyl-2-methyl-indol-1-yl)-acrylic acid] | > 100 µM
2 | O=C(O)CCn1cc(Cn2ccnc2)c2ccc(C(F)(F)F)cc21 [3-(3-Imidazol-1-ylmethyl-6-trifluoromethyl-indol-1-yl)-propionic acid] | > 100 µM
3 | O=C(O)CCn1cc(Cn2ccnc2)c2cc(Br)ccc21 [3-(5-Bromo-3-imidazol-1-ylmethyl-indol-1-yl)-propionic acid] | > 100 µM

The remaining lines, values ahead:

Row | IC50 | Structure (SMILES)
4 | > 100 µM | CC(C)c1c(Cn2ccnc2)c2ccccc2n1CCC(=O)O [3-(3-Imidazol-1-ylmethyl-2-isopropyl-indol-1-yl)-propionic acid]
5 | > 100 µM | O=C(O)CCn1cc(Cn2ccnc2)c2cc(Cl)ccc21 [3-(5-Chloro-3-imidazol-1-ylmethyl-indol-1-yl)-propionic acid]
6 | > 100 µM | CN(C)c1ccc2c(c1)c(Cn1ccnc1)cn2CCC(=O)O [3-(5-Dimethylamino-3-imidazol-1-ylmethyl-indol-1-yl)-propionic acid]
